Experimental data reported in ChEMBL document CHEMBL1150441.
Values belong to the compound of their own block, whether it stands above or below them. Active and inactive are the calls of the source. The calls are words filed in the database; no cut-off is given here.

Assays:
[1] = test system: Rattus norvegicus; experiment: Effect on uterine weight as tissue specific estrogen agonist assay in ovariectomized rat model at 0.1 mg/kg dose: Not significant; type: functional, organism-based; parameters: dose 0.1 mg/kg
[2] = target: T1, Estrogen receptor (Rattus norvegicus) (UniProt P06211+Q62986); experiment: Effect on serum cholesterol level as tissue specific estrogen agonist assay in ovariectomized rat model: significant decrease at <=10 mg/kg dose; type: functional, organism-based; conditions: filed as agonist
[3] = target: T1, Estrogen receptor (Rattus norvegicus); experiment: Effect on uterine weight as tissue specific estrogen agonist assay in ovariectomized rat model: significant increase at <=10 mg/kg dose; type: functional, organism-based; conditions: filed as agonist
[4] = target: T1, Estrogen receptor (Rattus norvegicus); experiment: Effect on serum cholesterol level as tissue specific estrogen agonist assay in ovariectomized rat model: significant decrease at <10 mg/kg dose; type: functional, organism-based; conditions: filed as agonist
[5] = test system: MCF7; experiment: Inhibition of MCF-7 cell proliferation stimulated by 10e-12 M estradiol: Not active; type: functional, cell-based; conditions: Homo sapiens
[6] = species on record: Rattus norvegicus; experiment: Effect on serum cholesterol level as tissue specific estrogen agonist assay in ovariectomized rat model: Not significant; type: functional, organism-based
[7] = species on record: Rattus norvegicus; experiment: Effect on uterine weight as tissue specific estrogen agonist assay in ovariectomized rat model: Not significant; type: functional, organism-based

SMILES: Oc1ccc2c(Cc3ccc(OCCN4CCCCC4)cc3)c([C@H]3CC[C@H](O)CC3)sc2c1
- Activity [1]: inactive

- Activity [2]: Agonist
- Activity [3]: Agonist
SMILES: CC(C)c1sc2cc(O)ccc2c1Cc1ccc(OCCN2CCCCC2)cc1

- Activity [4]: Agonist
- Activity [3]: Agonist
SMILES: Oc1ccc2c(Cc3ccc(OCCN4CCCCC4)cc3)c(C3CCCCC3)sc2c1

SMILES: C[C@]12CC[C@@H]3c4ccc(O)cc4CC[C@H]3[C@@H]1CC[C@@H]2O
- Dose [5]: inactive

- Activity [2]: Agonist
SMILES: Oc1ccc2c(Cc3ccc(OCCN4CCCCC4)cc3)c(C3CCCC3)sc2c1
- Activity [1]: inactive

SMILES: Cc1sc2cc(O)ccc2c1Cc1ccc(OCCN2CCCCC2)cc1
- Activity [6]: inactive
- Activity [7]: inactive

SMILES: CCc1sc2cc(O)ccc2c1C(=O)c1ccc(OCCN2CCCCC2)cc1
- Activity [7]: inactive

SMILES: CC(C)c1sc2cc(O)ccc2c1C(=O)c1ccc(OCCN2CCCCC2)cc1
- Activity [1]: inactive

SMILES: Oc1ccc2c(C(O)c3ccc(OCCN4CCCCC4)cc3)c(C3CCCC3)sc2c1 (configuration not stated)
- Activity [6]: inactive

SMILES: Cc1sc2cc(O)ccc2c1C(=O)c1ccc(OCCN2CCCCC2)cc1
- Activity [7]: inactive

- Activity [2]: Agonist
- Activity [3]: Agonist
SMILES: CCc1sc2cc(O)ccc2c1Cc1ccc(OCCN2CCCCC2)cc1

SMILES: O=C(c1ccc(OCCN2CCCCC2)cc1)c1c(C2CCCC2)sc2cc(O)ccc12
- Activity [1]: inactive
